Data reported in patent US10626144B2, “Peptide derivatives and uses thereof” (Nosopharm, priority 2014, dated 2020).
Square brackets hold non-standard residues; d marks the D form. Peptide text beside a SMILES is read from it. * marks the point of attachment. Abu(4,4,4-F3) = N[C@@H](CC(F)(F)F)C(=O)O; Phe(4-CN) = N#Cc1ccc(C[C@H](N)C(=O)O)cc1; Pro(cis-4-F) = O=C(O)[C@@H]1C[C@H](F)CN1; Pro(4,4-F2) = O=C(O)[C@@H]1CC(F)(F)CN1; Dab(3S-OH) = NC[C@H](O)[C@H](N)C(=O)O; Phe(2-F) = N[C@@H](Cc1ccccc1F)C(=O)O; Hyp = O=C(O)[C@@H]1C[C@@H](O)CN1; ΔZArg = N=C(N)NCC/C=C(\N)C(=O)O; Lys(Me) = CNCCCC[C@H](N)C(=O)O; dOrn = NCCC[C@@H](N)C(=O)O; Pip = O=C(O)[C@@H]1CCCCN1; Orn = NCCC[C@H](N)C(=O)O; Dab = NCC[C@H](N)C(=O)O; Nva = CCC[C@H](N)C(=O)O; NH(CH2)4NH2 = NCCCCN*

Key:
Test in all cases: MIC, broth microdilution (CLSI), reference strain
Settings in all cases: CAMHB
[1] = system: Pseudomonas aeruginosa ATCC 27853
[2] = system: Acinetobacter baumannii ATCC 19606
[3] = system: Escherichia coli ATCC 25922
[4] = system: Staphylococcus aureus ATCC 13709

Row | SMILES | Pa: MIC Pseudomonas aeruginosa ATCC 27853 [1] | Ab: MIC Acinetobacter baumannii ATCC 19606 [2] | Ec: MIC Escherichia coli ATCC 25922 [3] | Sa: MIC Staphylococcus aureus ATCC 13709 [4]
1 | N=C(N)NCC/C=C(\NC(=O)[C@H](CCCCN)NC(=O)[C@H](Cc1cnc[nH]1)NC(=O)[C@@H]1CCCN1C(=O)[C@@H](CCCN)NC(=O)CNC(=O)[C@H](CCCN)NC(=O)[C@@H](NC(=O)[C@@H](N)CCCCN)[C@@H](O)CN)C(=O)O [211.2] (H-K[Dab(3S-OH)][Orn]G[dOrn]PHK[ΔZArg]-OH) | − (>32 μg/mL) | − (>32 μg/mL) | + (≤32 μg/mL) | ++ (≤8 μg/mL)
2 | C[C@H](NC(=O)[C@@H](NC(=O)[C@@H](N)CCCCN)[C@@H](O)CN)C(=O)NCC(=O)N[C@H](CCCN)C(=O)N1C[C@H](O)C[C@H]1C(=O)N[C@@H](Cc1cnc[nH]1)C(=O)N[C@@H](CCCCN)C(=O)N/C(=C\CCNC(=N)N)C(=O)O [24.70] (H-K[Dab(3S-OH)]AG[dOrn][Hyp]HK[ΔZArg]-OH) | − (>32 μg/mL) | − (>32 μg/mL) | − (>32 μg/mL) | + (≤32 μg/mL)
3 | N=C(N)NCC/C=C(\NC(=O)[C@H](CCCCN)NC(=O)[C@H](Cc1cnc[nH]1)NC(=O)[C@@H]1CCCN1C(=O)[C@@H](CCCN)NC(=O)CNC(=O)CNC(=O)[C@H](CCN)NC(=O)[C@@H](N)CCCCN)C(=O)N[C@@H](CCCCN)C(=O)NCCCCN [13.1] (H-K[Dab]GG[dOrn]PHK[ΔZArg]K-{NH(CH2)4NH2}) | − (>32 μg/mL) | − (>32 μg/mL) | − (>32 μg/mL) | + (≤32 μg/mL)
4 | CNCCCC[C@H](N)C(=O)N[C@H](C(=O)N[C@@H](C)C(=O)NCC(=O)N[C@H](CCCN)C(=O)N1CCC[C@H]1C(=O)N[C@@H](Cc1cnc[nH]1)C(=O)N[C@@H](CCCCN)C(=O)N/C(=C\CCNC(=N)N)C(=O)O)[C@@H](O)CN [24.149] (H-[Lys(Me)][Dab(3S-OH)]AG[dOrn]PHK[ΔZArg]-OH) | − (>32 μg/mL) | − (>32 μg/mL) | + (≤32 μg/mL) | + (≤32 μg/mL)
5 | C[C@H](NC(=O)[C@@H](NC(=O)[C@@H](N)CCCCN)[C@@H](O)CN)C(=O)NCC(=O)N[C@H](CCCN)C(=O)N1CCC[C@H]1C(=O)N[C@@H](C)C(=O)N[C@@H](CCCCN)C(=O)N/C(=C\CCNC(=N)N)C(=O)O [24.158] (H-K[Dab(3S-OH)]AG[dOrn]PAK[ΔZArg]-OH) | − (>32 μg/mL) | − (>32 μg/mL) | − (>32 μg/mL) | + (≤32 μg/mL)
6 | N=C(N)NCC/C=C(\NC(=O)[C@H](CCCCN)NC(=O)[C@H](Cc1ccccc1F)NC(=O)[C@@H]1CCCN1C(=O)[C@@H](CCCN)NC(=O)CNC(=O)[C@H](CCN)NC(=O)[C@@H](NC(=O)[C@@H](N)CCCCN)[C@@H](O)CN)C(=O)O [21.4] (H-K[Dab(3S-OH)][Dab]G[dOrn]P[Phe(2-F)]K[ΔZArg]-OH) | − (>32 μg/mL) | − (>32 μg/mL) | ++ (≤8 μg/mL) | ++ (≤8 μg/mL)
7 | N=C(N)NCC/C=C(\NC(=O)[C@H](CCCCN)NC(=O)[C@H](Cc1cnc[nH]1)NC(=O)[C@@H]1CCCN1C(=O)[C@@H](CCCN)NC(=O)CNC(=O)[C@H](CCC(N)=O)NC(=O)[C@@H](NC(=O)[C@@H](N)CCCCN)[C@@H](O)CN)C(N)=O [222.1] (H-K[Dab(3S-OH)]QG[dOrn]PHK[ΔZArg]-NH2) | − (>32 μg/mL) | − (>32 μg/mL) | − (>32 μg/mL) | + (≤32 μg/mL)
8 | C[C@H](NC(=O)[C@@H](NC(=O)[C@@H](N)CCCCN)[C@@H](O)CN)C(=O)NCC(=O)N[C@H](CCCN)C(=O)N1CCC[C@H]1C(=O)N[C@@H](Cc1cnc[nH]1)C(=O)N[C@@H](CCCN)C(=O)N[C@H](CCCNC(=N)N)C(N)=O [24.128] (H-K[Dab(3S-OH)]AG[dOrn]PH[Orn][dR]-NH2) | − (>32 μg/mL) | − (>32 μg/mL) | − (>32 μg/mL) | ++ (≤8 μg/mL)
9 | C[C@H](NC(=O)[C@H](CCN)NC(=O)[C@@H](N)CCCCN)C(=O)NCC(=O)N[C@H](CCCN)C(=O)N1C[C@@H](F)C[C@H]1C(=O)N[C@@H](Cc1cnc[nH]1)C(=O)N[C@@H](CCCCN)C(=O)N/C(=C\CCNC(=N)N)C(=O)N[C@@H](CCCCN)C(=O)NCCCCN [14.4] (H-K[Dab]AG[dOrn][Pro(cis-4-F)]HK[ΔZArg]K-{NH(CH2)4NH2}) | − (>32 μg/mL) | − (>32 μg/mL) | − (>32 μg/mL) | ++ (≤8 μg/mL)
10 | C[C@H](NC(=O)[C@@H](NC(=O)[C@@H](N)CCCCN)[C@@H](O)CN)C(=O)NCC(=O)N[C@H](CCCN)C(=O)N1CCCC[C@H]1C(=O)N[C@@H](Cc1cnc[nH]1)C(=O)N[C@@H](CCCCN)C(=O)N/C(=C\CCNC(=N)N)C(=O)O [24.74] (H-K[Dab(3S-OH)]AG[dOrn][Pip]HK[ΔZArg]-OH) | − (>32 μg/mL) | − (>32 μg/mL) | + (≤32 μg/mL) | + (≤32 μg/mL)
11 | N#Cc1ccc(C[C@H](NC(=O)[C@@H]2CCCN2C(=O)[C@@H](CCCN)NC(=O)CNC(=O)[C@H](CCCN)NC(=O)[C@@H](NC(=O)[C@@H](N)CCCCN)[C@@H](O)CN)C(=O)N[C@@H](CCCCN)C(=O)N/C(=C\CCNC(=N)N)C(=O)O)cc1 [211.6] (H-K[Dab(3S-OH)][Orn]G[dOrn]P[Phe(4-CN)]K[ΔZArg]-OH) | − (>32 μg/mL) | − (>32 μg/mL) | ++ (≤8 μg/mL) | ++ (≤8 μg/mL)
12 | C[C@H](NC(=O)[C@@H](NC(=O)[C@@H](N)CCCCN)[C@@H](O)CN)C(=O)NCC(=O)N[C@H](CCCN)C(=O)N1CC(F)(F)C[C@H]1C(=O)N[C@@H](Cc1cnc[nH]1)C(=O)N[C@@H](CCCCN)C(=O)N/C(=C\CCNC(=N)N)C(=O)O [24.141] (H-K[Dab(3S-OH)]AG[dOrn][Pro(4,4-F2)]HK[ΔZArg]-OH) | − (>32 μg/mL) | − (>32 μg/mL) | − (>32 μg/mL) | ++ (≤8 μg/mL)
13 | C[C@H](NC(=O)[C@H](CCN)NC(=O)[C@@H](N)CCCCN)C(=O)NCC(=O)N[C@H](CCCN)C(=O)N1CCC[C@H]1C(=O)N[C@@H](Cc1cnc[nH]1)C(=O)N[C@@H](CCCCN)C(=O)N[C@H](CCCNC(=N)N)C(=O)N[C@@H](CCCCN)C(=O)NCCCCN [14.24] (H-K[Dab]AG[dOrn]PHK[dR]K-{NH(CH2)4NH2}) | − (>32 μg/mL) | − (>32 μg/mL) | − (>32 μg/mL) | + (≤32 μg/mL)
14 | CCC[C@H](NC(=O)[C@@H](NC(=O)[C@@H](N)CCCCN)[C@@H](O)CN)C(=O)NCC(=O)N[C@H](CCCN)C(=O)N1CCC[C@H]1C(=O)N[C@@H](Cc1cnc[nH]1)C(=O)N[C@@H](CCCCN)C(=O)N/C(=C\CCNC(=N)N)C(=O)N[C@@H](CCCCN)C(=O)NCCCCN [210.1] (H-K[Dab(3S-OH)][Nva]G[dOrn]PHK[ΔZArg]K-{NH(CH2)4NH2}) | − (>32 μg/mL) | − (>32 μg/mL) | − (>32 μg/mL) | ++ (≤8 μg/mL)
15 | N=C(N)NCC/C=C(\NC(=O)[C@H](CCCCN)NC(=O)[C@H](CC(F)(F)F)NC(=O)[C@@H]1CCCN1C(=O)[C@@H](CCCN)NC(=O)CNC(=O)[C@H](CCCN)NC(=O)[C@@H](NC(=O)[C@@H](N)CCCCN)[C@@H](O)CN)C(=O)O [211.8] (H-K[Dab(3S-OH)][Orn]G[dOrn]P[Abu(4,4,4-F3)]K[ΔZArg]-OH) | − (>32 μg/mL) | − (>32 μg/mL) | ++ (≤8 μg/mL) | ++ (≤8 μg/mL)
16 | C[C@H](NC(=O)[C@@H](NC(=O)[C@@H](N)CCCCN)[C@@H](O)CN)C(=O)NCC(=O)N[C@H](CCCN)C(=O)N1CCC[C@H]1C(=O)N[C@@H](Cc1cnc[nH]1)C(=O)N[C@@H](CCCCN)C(=O)N[C@H](CCCNC(=N)N)C(=O)O [24.122] (H-K[Dab(3S-OH)]AG[dOrn]PHK[dR]-OH) | − (>32 μg/mL) | − (>32 μg/mL) | − (>32 μg/mL) | − (>32 μg/mL)
